{"source": "patent US20060142171A1", "about": "“Novel alkaline protease” (priority 2003, published 2006)", "key": {"AL protease [1]": {"target": "T1, AL protease (Nesterenkonia aethiopica, UniProt D0VWT7)", "T1 sequence (D0VWT7 entry or part of it)": "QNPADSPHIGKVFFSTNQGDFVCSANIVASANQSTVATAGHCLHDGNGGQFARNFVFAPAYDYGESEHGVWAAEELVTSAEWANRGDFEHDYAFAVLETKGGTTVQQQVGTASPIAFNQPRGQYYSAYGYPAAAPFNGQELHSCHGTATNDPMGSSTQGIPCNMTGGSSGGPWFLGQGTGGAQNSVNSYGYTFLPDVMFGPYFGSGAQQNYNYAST", "assay": "Assay with synthetic peptide, pNA, AMC, NNap and ester substrates (kinetic parameters)", "assay_type": "biochemical, Nesterenkonia sp. AL", "conditions": "for Hydrolysis of synthetic substrate by AL protease: result in words", "experimental": "The AL protease activity toward a variety of commercially available synthetic peptide substrates was assayed. The incubation volume was always 1 ml in which 10 μl enzyme solution; 0.76 mg protein/ml was used unless otherwise stated. Initial reaction rates were fitted to the Michaelis-Menten equation, and kinetic parameters, kcat and Km were determined.\nFluorometric assay for Suc-L-Y-AMC, Suc-A-A-F-AMC, Suc-I-I-W-AMC, Suc-A-A-K-AMC, NA-Bz-R-AMC, Suc-L-L-V-Y-AMC, Suc-F-G-L-β-NNap, Suc-L-β-NNap (Sigma) was performed in 50 mM glycine-NaOH buffer, pH 10 at 25° C. The substrate concentration range was from 0.05 to 10 mM except for Suc-L-L-V-Y-AMC (0.1-25 μM). Fluorescence was monitored with a SPEX Fluorolog spectrometer, in a 1×1 cm quartz cuvette placed in a thermostat cuvette holder, using excitation wavelength of 345 nm, emission wavelength 442 nm slit width 5 nm for AMC substrate and excitation wavelength of 340 nm, emission wavelength of 410 and slit width 5 nm for β-NNap substrates. A standard solution of AMC and β-naphthylamine was used to convert the fluorescence values to product concentrations.\nActivity with p-nitroanilide substrates was tested at 25° C. in 50 mM Tris-HCl buffer, pH 9. Following substrates were used: Bz-Tyr-pNA (Sigma), BAPNA, Suc-Phe-pNA, Suc-A-A-P-F-pNA, Suc-A-A-P-L-pNA, Suc-G-G-G-pNA, Suc-A-A-A-pNA, Suc-A-A-V-pNA (Bachem Feinchemikalien AG (Bubendorf, Switzerland), and S-benzyl-L-cysteine-4-nitroanilide (Fluka Chemie AG, Buchs, Switzerland). The release of p-nitroanilide (pNA) was measured at 410 nm. Extinction coefficient (E) of pNA was taken to be 8480 M^−1 cm^−1. Initial reaction rates were determined over a concentration range of 0.05-10 mM for most substrates, excluding Suc-A-A-P-L-pNA (0.05-20 mM), and S-benzyl-L-Cysteine-4-nitroanilide (0.05-80 mM).\nHydrolytic activity of the enzyme on the ester substrates, BAEE, BTEE, Bz-F-NE, p-nitrophenyl acetate, p-nitrophenyl butyrate and Suc-F-L-F-SBzl (Sigma) was examined spectrophotometrically at 410 nm (ε410=900 M^−1cm^−1) in 50 mM Tris-HCl buffer, pH 9 at 25° C. and 50° C. respectively. The substrates concentration range between 0.05 to 10 mM. The Initial hydrolysis of BAEE, Suc-F-L-F-SBzl was followed at 253 nm (ε253=1150 M^−1cm^−1) and BTEE at 259 nm (ε259=964 M^−1cm^−1), at which their extinction coefficients were taken in calculation.\nDue to the poor aqueous solubility of some of the substrates, their stock solutions were prepared in organic solvents, and further dilution was done with the used buffer. Suc-F-G-L-β-NNap, Suc-L-L-V-Y-AMC, Suc-L-Y-AMC, Suc-A-A-F-AMC, Suc-I-I-W-AMC, Suc-A-A-K-AMC, NA-Bz-R-AMC and Bz-Tyr-pNA, Suc-F-L-F-SBzl and Bz-F-βNE were dissolved in dimethylsulfoxide (DMSO), Suc-Phe-pNA, BTEE and BAPNA in ethanol, Suc-A-A-A-pNA in N,N-dimethylformamide (DMF), and Bz-Cys-NA in acetonitrile.\nIn these cases the kcat/Km was calculated from velocity measurements at low substrate concentration [S]<<Km, where v=(kcat/Km)[E]0 [S]."}, "AL protease [2]": {"target": "T1, AL protease", "assay": "biochemical", "assay_type": "biochemical, Nesterenkonia sp. AL", "experimental": "(§1) Protease activity was determined using casein as substrate as described earlier [3.12]. The reaction mixture in a total volume of 2 ml was composed of 1% casein, 50 mM glycine-NaOH buffer, pH 10, and appropriately diluted enzyme. After 20 min incubation at 50° C. the reaction was terminated by adding equal volume of 10% trichloroacetic acid (TCA). After separation of the unreacted casein precipitate by centrifugation, 0.5 ml of clear supernatant was mixed with 2.5 ml of 0.5 M Na2CO3 and 0.5 ml of 1 N Folin-Ciocalteau's phenol reagent. After 30 min at 25° C., absorbance was measured at 660 nm against a reagent blank. One unit of protease activity was defined as the amount of enzyme that released 1 μg of amino acid equivalent to tyrosine per min under the standard assay conditions.\n(§2) AL protease was also not inhibited by inhibitors of cysteine proteases, aspartate proteases and metal proteases (Table 5). The effect of another serine protease specific inhibitor, 3,4-dichlorocoumarin at a concentration of 100 μM on the protease activity was investigated."}, "AL-89 protease": {"test_system": "AL-89 protease", "assay": "Effect of protease inhibitors on AL-89 protease activity", "assay_type": "biochemical, Bacillus pseudofirmus AL-89", "conditions": "for Remaining activity (%): AL-89 protease, incubated 1 h at 30° C.", "experimental": "as §1, §2"}, "[3]": {"conditions": "substrate marked a (footnote not given), AMC substrate, 50 mM glycine-NaOH buffer, pH 10 at 25° C."}, "[4]": {"conditions": "substrate marked b (footnote not given), pNA and ester substrates, 50 mM Tris-HCl buffer, pH 9"}, "[5]": {"conditions": "AL protease, inhibitor 10 mM, incubated 1 h at 30° C."}}, "note": "Starred links: 1 amine or outer side, 2 acyl side, 3 side chain; linkers in the order of their positions; H or OH if unused. Non-standard residues stand in square brackets, D forms with d. Residues, ends and D or L forms follow the SMILES beside them. *: point of attachment. Sta = CC(C)C[C@H](N)[C@@H](O)CC(=O)O; pNA = O=[N+]([O-])c1ccc(N*)cc1; Suc = O=C(CCC(=O)[*:2])[*:1]; Isovaleryl = CC(C)CC(=O)*"}
{"compound": "N-succinyl-Leu-Leu-Val-Tyr-7-amino-4-methyl coumarin [Suc-L-L-V-Y-AMC]", "values": [{"measurement": "kcat/Km higher than that for Suc-A-A-P-F-pNA and Suc-A-A-P-L-pNA", "setting": "AL protease [1]; AL protease", "value": "2.5-5 fold"}, {"measurement": "Hydrolysis of synthetic substrate by AL protease", "setting": "AL protease [1]", "value": "remarkable hydrolyzing activity"}, {"measurement": "Km", "setting": "AL protease [1]; [3]", "value": 15, "unit": "µM"}, {"measurement": "kcat", "setting": "AL protease [1]; [3]", "value": 51.68, "unit": "s⁻¹"}]}
{"compound": "O=C(O)c1cc[c]([Hg][Cl])cc1", "note": "[PCMBA]", "values": [{"measurement": "Remaining activity (%)", "setting": "AL protease [2]; AL protease, inhibitor 5 mM, incubated 1 h at 30° C.", "value": 99, "unit": "%"}, {"measurement": "Remaining activity (%)", "setting": "AL-89 protease; inhibitor 5 mM", "value": 91, "unit": "%"}]}
{"compound": "N-Succinyl-Ala-Ala-Ala-p-nitroanilide [Suc-A-A-A-pNA]", "values": [{"measurement": "Hydrolysis of synthetic substrate by AL protease", "setting": "AL protease [1]", "value": "unable to hydrolyze"}]}
{"compound": "N-succinyl-Ala-Ala-Pro-Leu-p-nitroanilide (Suc-AAPL-pNA; SMILES CC(C)C[C@H](NC(=O)[C@@H]1CCCN1C(=O)[C@H](C)NC(=O)[C@H](C)NC(=O)CCC(=O)O)C(=O)Nc1ccc([N+](=O)[O-])cc1) [Suc-A-A-P-L-pNA]", "values": [{"measurement": "Hydrolysis of synthetic substrate by AL protease", "setting": "AL protease [1]", "value": "remarkable hydrolyzing activity"}, {"measurement": "Km", "setting": "AL protease [1]; [4]", "value": 9300, "unit": "µM"}, {"measurement": "kcat", "setting": "AL protease [1]; [4]", "value": 6646.19, "unit": "s⁻¹"}]}
{"compound": "O=C(O)CCC(=O)N[C@@H](Cc1ccccc1)C(=O)Nc1ccc([N+](=O)[O-])cc1", "note": "[Suc-Phe-pNA, N-succinyl-phenylalanine-p-nitroanilide]", "values": [{"measurement": "Hydrolysis of synthetic substrate by AL protease", "setting": "AL protease [1]", "value": "did not show detectable activity"}]}
{"compound": "O=S(=O)(F)Cc1ccccc1", "note": "[PMSF, phenyl-methanesulfonyl fluoride]", "values": [{"measurement": "Remaining activity (%)", "setting": "AL protease [2]; AL protease, inhibitor 1 mM, incubated 1 h at 30° C.", "value": 100, "unit": "%"}, {"measurement": "Remaining activity (%)", "setting": "AL protease [2]; [5]", "value": 108, "unit": "%"}, {"measurement": "Inhibition of AL protease activity", "setting": "AL protease [2]; result in words, PMSF up to 10 mM, others at concentrations of Table 5", "value": "did not inhibit"}, {"measurement": "Remaining activity (%)", "setting": "AL-89 protease; inhibitor 1 mM", "value": 0, "unit": "%"}, {"measurement": "Remaining activity (%)", "setting": "AL-89 protease; inhibitor 10 mM", "value": 0, "unit": "%"}, {"measurement": "Inhibition of AL-89 protease activity", "setting": "AL-89 protease; result in words, 1 mM", "value": "totally inhibited"}]}
{"compound": "O=C(O)CN(CCN(CC(=O)O)CC(=O)O)CC(=O)O", "note": "[EDTA, ethylenediamino tetraacetate]", "values": [{"measurement": "Remaining activity (%)", "setting": "AL protease [2]; [5]", "value": 99, "unit": "%"}, {"measurement": "Remaining activity (%)", "setting": "AL-89 protease; inhibitor 10 mM", "value": 98, "unit": "%"}]}
{"compound": "c1cnc2c(c1)ccc1cccnc12", "note": "[1,10-Phenanthroline]", "values": [{"measurement": "remaining activity at 10000 µM", "setting": "AL protease [2]; [5]", "value": 113, "unit": "%"}, {"measurement": "Remaining activity (%)", "setting": "AL-89 protease; inhibitor 10 mM", "value": 75, "unit": "%"}]}
{"compound": "CC(=O)Oc1ccc([N+](=O)[O-])cc1", "note": "[p-nitrophenyl acetate]", "values": [{"measurement": "Hydrolysis of synthetic substrate by AL protease", "setting": "AL protease [1]", "value": "unable to cleave"}]}
{"compound": "N-succinyl-Ala-Ala-Val-p-nitroanilide (Suc-Ala-Ala-Val-pNA; SMILES CC(C)[C@H](NC(=O)[C@H](C)NC(=O)[C@H](C)NC(=O)CCC(=O)O)C(=O)Nc1ccc([N+](=O)[O-])cc1) [Suc-A-A-V-pNA]", "values": [{"measurement": "Hydrolysis of synthetic substrate by AL protease", "setting": "AL protease [1]", "value": "unable to hydrolyze"}]}
{"compound": "N=C(N)NCCCC(NC(=O)c1ccccc1)C(=O)Nc1ccc([N+](=O)[O-])cc1", "note": "(racemic) [BAPNA, Nα-benzoyl-D,L-arginine-p-nitroanilide]", "values": [{"measurement": "Hydrolysis of synthetic substrate by AL protease", "setting": "AL protease [1]", "value": "did not show detectable activity"}]}
{"compound": "N-succinyl-Ala-Ala-Pro-Phe-p-nitroanilide (Suc-AAPF-pNA) [Suc-A-A-P-F-pNA]", "values": [{"measurement": "Hydrolysis of synthetic substrate by AL protease", "setting": "AL protease [1]", "value": "remarkable hydrolyzing activity"}, {"measurement": "Km", "setting": "AL protease [1]; [4]", "value": 2970, "unit": "µM"}, {"measurement": "kcat", "setting": "AL protease [1]; [4]", "value": 4391.46, "unit": "s⁻¹"}]}
{"compound": "CC(C)CC(=O)N[C@H](C(=O)N[C@H](C(=O)N[C@@H](CC(C)C)[C@@H](O)CC(=O)N[C@@H](C)C(=O)N[C@@H](CC(C)C)[C@@H](O)CC(=O)O)C(C)C)C(C)C", "note": "[Pepstatin] (Isovaleryl-VV[Sta]A[Sta]-OH)", "values": [{"measurement": "remaining activity at 100 µM", "setting": "AL protease [2]; AL protease, inhibitor 0.1 mM, incubated 1 h at 30° C.", "value": 102, "unit": "%"}, {"measurement": "Remaining activity (%)", "setting": "AL-89 protease; inhibitor 0.1 mM", "value": 100, "unit": "%"}]}
{"compound": "N-succinyl-Gly-Gly-Gly-p-nitroanilide (Suc-Gly-Gly-Gly-pNA; SMILES O=C(O)CCC(=O)NCC(=O)NCC(=O)NCC(=O)Nc1ccc([N+](=O)[O-])cc1) [Suc-G-G-G-pNA]", "values": [{"measurement": "Hydrolysis of synthetic substrate by AL protease", "setting": "AL protease [1]", "value": "unable to hydrolyze"}]}
